The target of data set [1] is T1, OGG1 in HL60 cells (Homo sapiens, UniProt O15527).
T1 construct: endogenous in cells; host or cells: HL60
Kind of data set: Cellular thermal shift assay (CETSA). Format: cell-based. On the procedure:
CETSA experiments were carried out with intact HL60 cells treated in culture. Cells were seeded at a density of 350 000 cells/mL and treated with DMSO (0.01%, v/v) or 20 µM test compound for 2 h at 37 °C and 5% CO2 in a humidified incubator. Cells were washed once in 1x TBS (50 mM Tris-HCl, pH 7.6, 150 mM NaCl), resuspended in 1x TBS supplemented with protease inhibitors (Roche), and then divided into 30-µL aliquots corresponding to approximately 600,000 cells per sample in PCR strip tubes. Cells were heated in a Veriti Thermal Cycler (Applied Biosystems) for 3 min at indicated temperatures (temperature interval consisting of 2 °C increases, starting from 40 °C up to 62 °C) and cooled for 5 min at room temperature to allow precipitation of denatured proteins. 5x NP-40 buffer was added to the samples and cells were lysed by performing three freeze–thaw cycles at −80 °C for 3 min and at 37 °C for 3 min with gentle vortexing between the cycles. Cell lysates were then centrifuged at 17,000 g and 4 °C for 30 min to remove cellular debris and insoluble proteins. Supernatant was prepared for western blot analysis according to standard procedures. […]

The nature of data set [2]: Thermodynamic solubility. In kind it is physicochemical. As to conditions: for solubility thermodynamic: thermodynamic from solid.
Data set [3] can be described thus: Caco-2 cell permeability assay. Conditions: human, Caco-2, pH 7.4; for Papp A→B at 60 min, 10 µM: read-out: Papp AB (10–6 cm/s); for Papp B→A at 60 min, 10 µM: read-out: Papp BA (10–6 cm/s). In kind it is in vitro ADME. As to the method: Prior to the experiment a drug solution of 10 µM was prepared and warmed to 37 °C. The Caco-2 filters were washed with pre-warmed HBSS prior to the experiment, and thereafter the experiment was started by applying the donor solution on the apical or basolateral side. The transport experiments were carried out at pH 7.4 in both the apical and basolateral chamber. The experiments were performed at 37 °C and with a stirring rate of 500 rpm. The receiver compartment was sampled at 15, 30, and 60 min, and at 60 min also a final sample from the donor chamber was taken to calculate the mass balance of the compound. The samples (100 µL) were transferred to a 96-well plate containing 100 µL methanol and Warfarin as IS and was sealed until analyzed by liquid chromatography coupled to triple quadrupole mass spectrometry (LC-MS/MS).
(In general: Passage across Caco-2 layers is used to estimate intestinal permeability.)

Data set [4] addresses T2, OGG1-GFP in U2OS cells (Homo sapiens, UniProt O15527).
T2 construct: expressed in transfected cells
Nature of the data set: Laser microirradiation assay (OGG1-GFP recruitment to DNA damage sites). As to conditions: for OGG1-GFP recruitment to DNA damage sites, intensity normalised to time 0 (Figure3E): single-cell replicate traces. In kind it is cell-based.

For data set [5], the system named is NF-κB activation in HEK293T pGF NF-κB cells. Nature of the data set: TNF-α induced NF-κB activation assay. Format: cell-based. Conditions: for EC50: Homo sapiens, HEK-293T. As to the method: The inhibition of TNF-α induced NF-κB activation was measured in HEK293T cells transfected with the pGreenfire NF-κB plasmid. This is a plasmid that has NF-κB response elements (TRE) coupled to GFP and luciferase expression. When the NF-κB is activated by TNF-α, it binds to the TRE and induces GFP expression, and the fluorescence can be measured in a plate reader. The cells were authenticated with STR profiling, frozen down and these stocks were used in experiments. The HEK293T pGF NF-κB cells were kept in DMEM with 5% FBS and 1% P/S but, when seeded for the assay the medium was changed to DMEM FluoroBrite with 1% dialyzed FBS. All cell culture reagents were purchased from Thermo Fisher Scientific. Compounds were nano-dispensed (Echo acoustic dispenser) in 96-well, black/clear, assay plates (Corning #3904), duplicate plates, in 8-points dose-response curves, 1:2 dilutions, with DMSO compensation (0.3% DMSO). Cells were seeded at 30000 cells/well in medium containing 10 ng/mL of TNF-α (Sigma-Aldrich), except negative control wells which only contained cells in medium. Cells were cultured for 24 hours in a humidified incubator at 37 °C with 5% CO2 after which the GFP fluorescence was measured in a Sense plate reader (Hidex) with ex485/em535. The RFU data from the duplicate plates were combined to calculate % inhibition of NF-κB activation and IC50-values were calculated using XLfit (IDBS). In parallel with the NF-κB assay, a CellTiterGlo (Promega) cell viability assay was run to exclude compounds affecting cell viability. Compounds were nano-dispensed (Echo acoustic dispenser) in assay plates in 11-points dose-response curves, 1:3 dilutions, without DMSO compensation, with duplicates on the same plate. Cells were seeded at 7500 cells/well in 25 µL medium (DMEM FluoroBrite with 1% dialyzed FBS) containing 10 ng/mL TNF-α and cultured for 24 hours, with column 24 containing only culture medium. After equilibration to room temperature, the CellTiterGlo reagents were mixed and 25 µL/well were added to the cell plate. After 2 min mixing of the plate on an orbital shaker, the plate was incubated for 10 min at room temperature followed by luminescence reading in Sense. The cell viability was calculated compared to untreated control wells and the EC50 values were determined in XLfit (IDBS). […]

Data set [6] concerns the target NEIL1 (Homo sapiens, UniProt Q96FI4). Kind of data set: biochemical.
Experimental: (§1) Inhibition of the following enzymes was assessed in the selectivity assays: apurinic/apyrimidinic endonuclease (APE1), endonuclease 8-like 1 (NEIL1), oxidized purine nucleoside triphosphate hydrolase (MTH1) and single-strand selective monofunctional uracil DNA glycosylase (SMUG1). BER enzymes were assayed with a similar strategy as OGG1, using identical DNA sequences surrounding the substrate lesion and the same reaction buffer containing 2 nM APE1. To assess SMUG1 inhibition, a 375 nM substrate containing uracil opposite guanine and 0.3 U SMUG1 enzyme (M0336 from New England Biolabs) was used. To assess NEIL1 inhibition, a 20 nM substrate containing thymidine glycol opposite adenine and 10 nM NEIL1 was used. […] All BER inhibition assays were in the linear range and less than 40% of the total substrate had been consumed at readout. The experiments were performed in three independent replicates and the percentage inhibition was calculated relative to the signal of a DMSO-treated control. […] The produced free phosphate was then detected using the malachite green assay[76]. […] Absorbance was read at 630 nm using a Hidex Sense plate reader after a period of incubation with the methylene green reagent of 15 minutes. The experiment was performed in three independent replicates and percentage inhibition was calculated relative to the signal of a DMSO-treated control.
Data set [7] has as its target T3, SMUG1 (Homo sapiens, UniProt Q53HV7).
T3 construct: purchased New England Biolabs M0336
T3 sequence (Q53HV7 1-270): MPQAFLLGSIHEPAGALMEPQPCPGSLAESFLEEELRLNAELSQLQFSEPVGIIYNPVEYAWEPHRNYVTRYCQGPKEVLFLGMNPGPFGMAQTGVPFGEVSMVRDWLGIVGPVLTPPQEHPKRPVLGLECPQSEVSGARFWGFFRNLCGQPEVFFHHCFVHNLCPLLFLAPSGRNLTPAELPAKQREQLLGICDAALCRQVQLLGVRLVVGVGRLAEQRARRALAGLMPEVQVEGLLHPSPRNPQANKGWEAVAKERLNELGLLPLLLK
Kind of data set: BER enzyme selectivity assay, SMUG1. Format: biochemical. Conditions: Figure 3B, three independent experiments.
Experimental: as §1

Where [8] appears, read: Concentration 2.34e-7, single replicates.
[9] abbreviates: Concentration 4.69e-7, single replicates.
Where [10] appears, read: Concentration 9.38e-7, single replicates.
Where [11] appears, read: Concentration 1.88e-6, single replicates.
Where [12] appears, read: Concentration 3.75e-6, single replicates.
Setting [13] is: Concentration 7.5e-6, single replicates.
Where [14] appears, read: Concentration 1.5e-5, single replicates.
Where [15] appears, read: Concentration 3e-5, single replicates.
The mark [16] stands for this setting: NFκB activation assay, ± SD, read-out: pEC50 (converted).

≈ marks a conversion by molar mass, not a printed value. Where “and” joins values, the source holds several entries; their conditions need not be identical. Equal entries are not always repeated. Where two headings read alike, the source gives them in different places.

T2 sequence (O15527 whole entry): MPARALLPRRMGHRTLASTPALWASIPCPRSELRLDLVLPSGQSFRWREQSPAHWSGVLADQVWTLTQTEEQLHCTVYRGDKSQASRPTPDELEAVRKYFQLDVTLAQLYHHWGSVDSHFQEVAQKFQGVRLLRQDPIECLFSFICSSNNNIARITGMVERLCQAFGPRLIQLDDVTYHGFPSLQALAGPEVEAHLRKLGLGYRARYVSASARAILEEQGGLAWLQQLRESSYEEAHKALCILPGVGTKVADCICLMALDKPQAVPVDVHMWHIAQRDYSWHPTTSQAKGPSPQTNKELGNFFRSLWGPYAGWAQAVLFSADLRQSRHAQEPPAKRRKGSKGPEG
Chain of NEIL1 (Q96FI4 whole entry, species assumed): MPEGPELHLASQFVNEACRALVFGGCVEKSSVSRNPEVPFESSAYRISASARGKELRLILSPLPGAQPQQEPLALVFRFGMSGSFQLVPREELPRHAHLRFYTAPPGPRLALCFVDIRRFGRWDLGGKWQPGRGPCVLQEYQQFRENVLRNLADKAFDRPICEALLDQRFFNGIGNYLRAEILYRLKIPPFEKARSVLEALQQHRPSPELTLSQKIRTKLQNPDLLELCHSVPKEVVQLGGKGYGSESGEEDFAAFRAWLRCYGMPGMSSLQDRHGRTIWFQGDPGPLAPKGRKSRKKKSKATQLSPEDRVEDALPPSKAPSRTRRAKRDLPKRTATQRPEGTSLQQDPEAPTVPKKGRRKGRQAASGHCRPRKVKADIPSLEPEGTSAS
T1 sequence (O15527 whole entry): as the sequence (O15527 whole entry) above

One may read the solubility (thermodynamic) as the concentration in solution at equilibrium with solid. `Cc1nc(-c2cc(F)c(CC(=O)Nc3noc4c3CCCC4)c(F)c2)c(C)[nH]1` [compound 23]: in data set [1], the “thermal stabilization of OGG1 in cells (CETSA)” value is recorded as “strong thermal stabilization”. Besides, in data set [2] (single replicate), the thermodynamic solubility turned out to be 16 µM (≈ 6.18 µg/mL). Further, the Papp A→B at 60 min, 10 µM in data set [3] was found to be 6.13 ×10⁻⁶ cm/s. Besides, in data set [3], the Papp B→A at 60 min, 10 µM was 94.2 ×10⁻⁶ cm/s. Also, the “OGG1-GFP recruitment to DNA damage sites, intensity normalised to time 0 (Figure3E)” value was 1.25 (2×) and 1.24 (4×) and 1.21 and 1.14 and 1.19 (2×) and 1.22 (2×) and 1.23 and 1.26 and 1.2 in data set [4] (10uM, time 14 s); 1.27 (3×) and 1.26 (2×) and 1.29 (2×) and 1.23 (4×) and 1.12 and 1.19 and 1.18 and 1.24 in data set [4] (10uM, time 16 s); 1.27 (2×) and 1.28 (3×) and 1.24 (3×) and 1.15 and 1.21 and 1.19 and 1.25 (3×) and 1.31 in data set [4] (10uM, time 18 s); 1.3 and 1.29 and 1.33 and 1.26 and 1.15 and 1.24 and 1.21 and 1.27 (2×) and 1.28 in data set [4] (10uM, time 20 s); 1.18 (2×) and 1.14 and 1.21 (4×) and 1.2 (3×) and 1.12 and 1.19 (2×) and 1.22 and 1.23 in data set [4] (50uM, time 14 s); 1.19 and 1.14 and 1.22 (4×) and 1.15 and 1.21 (3×) and 1.2 (2×) and 1.24 and 1.25 and 1.23 in data set [4] (50uM, time 16 s). For the same compound, the “OGG1-GFP recruitment to DNA damage sites, intensity normalised to time 0 (Figure3E)” value in data set [4] (50uM, time 18 s) was 1.2 (3×) and 1.15 (2×) and 1.22 (3×) and 1.21 (2×) and 1.24 (3×) and 1.23 and 1.27. For the same compound, in data set [4] (50uM, single cells, U2OS), the “Maximum Intensity (OGG1-GFP at damage sites)” value is 1.31 and 1.3 and 1.27 and 1.34 and 1.37 and 1.28 and 1.23 and 1.32. For the same compound, in data set [4] (U2OS cells), the “recruitment of OGG1-GFP to laser-induced DNA damage sites” value is “impaired”. For the same compound, the “% inhibition of NF-κB activation (Figure3F)” value (shortened to “% inhibition”) was 12.9% and 24.6% and 2.1% in data set [5] (setting [8]); 11.9% and 16.7% and -7.9% in data set [5] (setting [9]); 11% and 6.8% and -9.9% in data set [5] (setting [10]); 11.1% and 26.6% and 2.8% in data set [5] (setting [11]); 21.4% and 46% and -1.3% in data set [5] (setting [12]); 38.5% and 60.8% and 40% in data set [5] (setting [13]). Also, the “% inhibition” value was 56.3% and 70.5% and 50.3% in data set [5] (setting [14]); 64.4% and 84.7% and 71.9% in data set [5] (setting [15]). For the same compound, the EC50 is 6.31 µM in data set [5] (setting [16]) and 6.3 µM in data set [5] (inhibition of TNF-α-induced NF-κB activation, read-out: EC50).
Take `Nc1nn(-c2ccc(CC(=O)Nc3noc4c3CCCC4)cc2)c2ccccc12` [compound 11]: the EC50 in data set [5] (setting [16]) was 10 µM.
The compound `O=C(Nc1ccc(I)cc1)N1CCC(n2c(=O)[nH]c3c(Br)cccc32)CC1` [TH5487, reference compound] registered a thermodynamic solubility in data set [2] of less than 1 µM. For the same compound, in data set [3], the Papp A→B at 60 min, 10 µM came out at 4.16 ×10⁻⁶ cm/s. The Papp B→A at 60 min, 10 µM in data set [3] is 4.83 ×10⁻⁶ cm/s. Moreover, the “OGG1-GFP recruitment to DNA damage sites, intensity normalised to time 0 (Figure3E)” value in data set [4] (10uM, time 14 s) is 1.22 (3×) and 1.25 and 1.18 (2×) and 1.31 and 1.24 and 1.32 (2×) and 1.15 and 1.27 and 1.19 (2×) and 1.28; in data set [4] (10uM, time 16 s), 1.24 and 1.28 and 1.23 (2×) and 1.18 (2×) and 1.34 and 1.25 and 1.32 and 1.19 and 1.29 and 1.2 and 1.22 and 1.31 and 1.3; in data set [4] (10uM, time 18 s) it was 1.25 (2×) and 1.31 (2×) and 1.24 and 1.21 and 1.35 (2×) and 1.26 and 1.18 and 1.2 and 1.3 and 1.22 and 1.23 and 1.33; in data set [4] (10uM, time 20 s), 1.26 and 1.31 (2×) and 1.24 (3×) and 1.2 and 1.35 and 1.29 and 1.37 and 1.16 and 1.19 and 1.27 and 1.36 and 1.33; in data set [4] (10uM, time 22 s), 1.27 and 1.32 and 1.28 (3×) and 1.2 and 1.36 and 1.37 (2×) and 1.18 and 1.22 (2×) and 1.34 and 1.25 and 1.35; in data set [4] (10uM, time 24 s), 1.29 (2×) and 1.32 and 1.25 (2×) and 1.21 and 1.37 (2×) and 1.39 and 1.18 and 1.22 and 1.35 and 1.3 and 1.24 and 1.36. The “OGG1-GFP recruitment to DNA damage sites, intensity normalised to time 0 (Figure3E)” value in data set [4] (10uM, time 26 s) is 1.29 (2×) and 1.32 and 1.28 and 1.21 and 1.38 (2×) and 1.4 and 1.19 and 1.22. For the same compound, the “% inhibition” value in data set [5] (setting [8]) was 18.9% and 16.9% and 37.3% and 20.7% and 19.4% and 19.3%; in data set [5] (setting [9]), 18.1% and 35.6% and 25.7% and 21.2% and 9.2%; in data set [5] (setting [10]) it was 12.4% and 13.4% and 36.2% and 34.5% and 36.5% and 30%; in data set [5] (setting [11]), 21% and 33.9% and 49.1% and 39.2% and 40.4% and 37.2%; in data set [5] (setting [12]) it was 58.6% and 64.7% and 55% and 52% and 44.1% and 44%; in data set [5] (setting [13]), 81.2% and 86.7% and 75.9% and 78.4% and 98.7% and 81.3%. In addition, the “% inhibition” value in data set [5] (setting [14]) was 101.6% and 99.3% (2×) and 95.7% and 105.1% and 123.3%; in data set [5] (setting [15]), 104.2% and 102% and 99.9% and 101.1% and 123.3% and 102.7%.
Broadly, the IC50 is the concentration at which inhibition is half-maximal. A low value points to higher potency. A word on the efflux ratio: it is a quotient of directional permeabilities that is used to spot active efflux. The compound `Cc1nc(-c2ccc(CC(=O)Nc3noc4c3CCCC4)cc2)c(C)[nH]1` [compound 17] gave a half-maximal inhibitory concentration (IC50) in data set [6] of more than 99 µM. In addition, in data set [2], the “fold higher solubility than TH5487” value was > 600 fold and > 667 fold; the solubility (thermodynamic) stood at 667 µM (≈ 234 µg/mL). The compound further came in with an IC50 in data set [7] of more than 99 µM. Moreover, in data set [3], the efflux ratio at 60 min, 10 µM came out at 6.7; the Papp A→B at 60 min, 10 µM was determined as 19.8 ×10⁻⁶ cm/s; the Papp B→A at 60 min, 10 µM is 134 ×10⁻⁶ cm/s. For the same compound, the EC50 in data set [5] (setting [16]) was 19.1 µM.

Values taken from publication PMC11836371, “Virtual fragment screening for DNA repair inhibitors in vast chemical space” (Nature Communications, 2025).
